The text below walks through data of US11564902B2, “Extended duration local anesthetic formulation” (Ventis Pharma, priority 2015, dated 2023).

For series [1] the following is noted: with or without epinephrine; cited from earlier work.
The conditions of series [2]: cited from earlier work; for major nerve block duration: reportedly.
The conditions of series [3]: contact with blood; cited from earlier work.
A short description of series [4]: Toxic dose of local anesthetics on intravascular absorption. The conditions noted are these: inferred from immediate hydrolysis on contact with blood.
From the text: Short duration local anesthetics are generally used in 1%-2% concentrations. Current applications for short duration local anesthetics are dictated by toxicity; these toxicities vary by drug. […] Intravascular injection or a toxic dosage carries the risk of potential complications such as cardiac arrhythmias or seizures.
Total dose is adjusted to the specific purpose for the local anesthetic administration.
The conditions of series [5]: cited from earlier work.
The conditions of series [6]: powdered form, room temperature; cited from earlier work.

For `CCCCN1CCCCC1C(=O)Nc1c(C)cccc1C` (stereo not shown) [bupivacaine], the toxic dose in series [1] was 2.5 mg per kg. Further, the “major nerve block duration” value in series [2] is reported as “three to twelve”. The analgesic duration in series [2] (transversus abdominis plane (TAP) block, 30-35 ml per side, abdominal procedures) is 12 to 16 h.

For the molecule `CCCN(CC)C(CC)C(=O)Nc1c(C)cccc1C` (stereo not shown) [etidocaine], the “major nerve block duration” value in series [2] is “three to twelve”.

Consider `CCCCNc1ccc(C(=O)OCCN(C)C)cc1` [tetracaine], for which the metabolism in blood result in series [3] is “immediately metabolized in contact with blood”. Also, the actual toxic dose entry in series [4] is reported as “higher than 5 mg/kg”. In series [5] (0.2% concentration), the motor blockade entry is “minimal motor blockade” and the neurotoxicity result is given as “not neurotoxic”. For the same molecule, the toxic concentration in series [5] (applied directly to nerve structures) was 1%. For the same molecule, in series [6], the stability entry is recorded as “stable at room temperature”.
